# According to patent publication US20160279215A1, “NOVEL PEPTIDES AND COMBINATION OF PEPTIDES FOR USE IN IMMUNOTHERAPY AGAINST VARIOUS TUMORS” (immatics biotechnologies GmbH, priority 2015, published 2016):
# Columns and labels:
# HLA-A*02:01 = biological target: T1, HLA-A*02:01 (Homo sapiens, UniProt P04439, D140Y/D185E/D98H/E176V/E277Q/G131W/G231S/I119V/I121R/I166T/I218V/L300P/L318F/N151K/N90K/P208A/P217A/Q86G/Q94H/R138H/R169H/T345S); test: MHC binding assay: UV-ligand exchange with β2m ELISA (peptide exchange yield); conditions: binding to HLA-A*02:01 evaluated by peptide exchange yield (UV-ligand exchange, β2m ELISA)
# T1 construct: made in house
# Summary of the method: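 UV-cleavable peptide in HLA monomers exchanged for test peptide by UV irradiation; exchange yield measured by streptavidin-capture ELISA with HRP anti-β2m (TMB, 450 nm) on 100-fold diluted complexes. Quantified against refolded HLA-A*02:01/MLA-001 standards (15-500 ng/ml).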
# [1] = tested on: CD8+ T cells of healthy HLA-A*02 donors; test: In vitro immunogenicity: T-cell priming with aAPCs loaded with peptide/MHC and anti-CD28, pMHC multimer readout; type: cell-based, human; conditions: for Wells positive [%]: in vitro immunogenicity, HLA-A*02 restricted peptides, percentage of positive wells among evaluable; for donors: percentage of positive donors; for donors / wells: in vitro immunogenicity of HLA class I peptides; for wells: percentage of positive wells
# Text: In order to obtain information regarding the immunogenicity of the TUMAPs of the present invention, the inventors performed investigations using an in vitro T-cell priming assay based on repeated stimulations of CD8+ T cells with artificial antigen presenting cells (aAPCs) loaded with peptide/MHC complexes and anti-CD28 antibody.
# In order to perform in vitro stimulations by artificial antigen presenting cells loaded with peptide-MHC complex (pMHC) and anti-CD28 antibody, the inventors first isolated CD8+ T cells from fresh HLA-A*02 leukapheresis products via positive selection using CD8 microbeads (Miltenyi Biotec, Bergisch-Gladbach, Germany) of healthy donors obtained from the University clinics Mannheim, Germany, after informed consent. PBMCs and isolated CD8+ lymphocytes were incubated in T-cell medium (TCM) until use consisting of RPMI-Glutamax (Invitrogen, Karlsruhe, Germany) supplemented with 10% heat inactivated human AB serum (PAN-Biotech, Aidenbach, Germany), 100 U/ml Penicillin/100 μg/ml Streptomycin (Cambrex, Cologne, Germany), 1 mM sodium pyruvate (CC Pro, Oberdorla, Germany), 20 μg/ml Gentamycin (Cambrex). 2.5 ng/ml IL-7 (PromoCell, Heidelberg, Germany) and 10 U/ml IL-2 (Novartis Pharma, Nürnberg, Germany) were also added to the TCM at this step. Generation of pMHC/anti-CD28 coated beads, T-cell stimulations and readout was performed in a highly defined in vitro system using four different pMHC molecules per stimulation condition and 8 different pMHC molecules per readout condition.
# The purified co-stimulatory mouse IgG2a anti human CD28 Ab 9.3 (Jung et al., 1987) was chemically biotinylated using Sulfo-N-hydroxysuccinimidobiotin as recommended by the manufacturer (Perbio, Bonn, Germany). Beads used were 5.6 μm diameter streptavidin coated polystyrene particles (Bangs Laboratories, Illinois, USA).
# pMHC used for positive and negative control stimulations were A*0201/MLA-001 (peptide […] (SEQ ID NO. 289) from modified Melan-A/MART-1) and A*0201/DDX5-001 ([…] from DDX5, SEQ ID NO. 290), respectively.
# 800.000 beads/200 μl were coated in 96-well plates in the presence of 4×12.5 ng different biotin-pMHC, washed and 600 ng biotin anti-CD28 were added subsequently in a volume of 200 μl. Stimulations were initiated in 96-well plates by co-incubating […] CD8+ T cells with 2×10^5 washed coated beads in 200 μl TCM supplemented with 5 ng/ml IL-12 (PromoCell) for 3 days at 37° C. Half of the medium was then exchanged by fresh TCM supplemented with 80 U/ml IL-2 and incubating was continued for 4 days at 37° C. This stimulation cycle was performed for a total of three times. For the pMHC multimer readout using 8 different pMHC molecules per condition, a two-dimensional combinatorial coding approach was used as previously described (Andersen et al., 2012) with minor modifications encompassing coupling to 5 different fluorochromes. Finally, multimeric analyses were performed by staining the cells with Live/dead near IR dye (Invitrogen, Karlsruhe, Germany), CD8-FITC antibody clone SK1 (BD, Heidelberg, Germany) and fluorescent pMHC multimers. For analysis, a BD LSRII SORP cytometer equipped with appropriate lasers and filters was used. Peptide specific cells were calculated as percentage of total CD8+ cells. Evaluation of multimeric analysis was done using the FlowJo software (Tree Star, Oreg., USA). In vitro priming of specific multimer+ CD8+ lymphocytes was detected by comparing to negative control stimulations.
# Exemplary flow cytometry results after TUMAP-specific multimer staining for 15 peptides of the invention are shown in FIGS. 3 and 6 together with corresponding negative controls.
Substance,Peptide exchange (HLA-A*02:01),Wells positive [%] [1],donors [1],wells [1]
4 (VLFGELPAL; listed as Homo sapiens) [compound 4],+++ (≧50 = +++),+ (<20% = +),,
11 (LLDPKTIFL; listed as Homo sapiens) [compound 11],+++ (≧50 = +++),++ (20%-49% = ++),,
17 (GLLPSAESIKL; listed as Homo sapiens) [compound 17],++++ (≧75% = ++++),+ (<20% = +),,
27 (GLLGKVTSV; listed as Homo sapiens) [compound 27],+++ (≧50 = +++),+ (<20% = +),,
29 (KMISAIPTL; listed as Homo sapiens) [compound 29],++ (≧20% = ++),+ (<20% = +),,
35 (VIIKGLEEI; listed as Homo sapiens) [compound 35],++ (≧20% = ++),+ (<20% = +),,
89 (SLAETIFIV; listed as Homo sapiens) [compound 89],+++ (≧50 = +++),+ (<20% = +),,
101 (SLLEVNEASSV; listed as Homo sapiens) [compound 101],+++ (≧50 = +++),+ (<20% = +),,
117 (TLLEGISRA; listed as Homo sapiens) [compound 117],++ (≧20% = ++),++ (20%-49% = ++),,
166 (LLGDSSFFL; listed as Homo sapiens) [compound 166],+++ (≧50 = +++),++ (20%-49% = ++),,
233 (SLFESLEYL; listed as Homo sapiens) [compound 233],+++ (≧50 = +++),+ (<20% = +),,
234 (VLLNEILEQV; listed as Homo sapiens) [compound 234],++++ (≧75% = ++++),++ (20%-49% = ++),,
248 (VLMQDSRLYL; listed as Homo sapiens) [compound 248],+++ (≧50 = +++),++ (20%-49% = ++),,
253 (KLLAVIHEL; listed as Homo sapiens) [compound 253],+++ (≧50 = +++),++ (20%-49% = ++),,
255 (FLMKNSDLYGA; listed as Homo sapiens) [compound 255],+++ (≧50 = +++),+ (<20% = +),,
260 (ALNESLVEC; listed as Homo sapiens) [compound 260],+++ (≧50 = +++),+ (<20% = +),,
287 (KIQEILTQV; listed as Homo sapiens) [compound 287],,,+++ (50%-69% = +++),+ (<20% = +)
288 (SLYKGLLSV; listed as Homo sapiens) [compound 288],,,++++ (>= 70% = ++++),++ (21%-49% = ++)

# Second part, led by results:
Peptide exchange (HLA-A*02:01),Substance,Wells positive [%] [1],donors [1],wells [1]
+++ (≧50 = +++),7 (ALLQALMEL; listed as Homo sapiens) [compound 7],++ (20%-49% = ++),,
+++ (≧50 = +++),9 (SLITGQDLLSV; listed as Homo sapiens) [compound 9],+ (<20% = +),,
+++ (≧50 = +++),14 (YTFSGDVQL; listed as Homo sapiens) [compound 14],+ (<20% = +),,
+++ (≧50 = +++),48 (KISDFGLATV; listed as Homo sapiens) [compound 48],++ (20%-49% = ++),,
+++ (≧50 = +++),50 (ILLSVLHQL; listed as Homo sapiens) [compound 50],+ (<20% = +),,
++ (≧20% = ++),66 (AMFPDTIPRV; listed as Homo sapiens) [compound 66],+ (<20% = +),,
+++ (≧50 = +++),77 (ALYGNVQQV; listed as Homo sapiens) [compound 77],+ (<20% = +),,
++++ (≧75% = ++++),92 (RLFEEVLGV; listed as Homo sapiens) [compound 92],++ (20%-49% = ++),,
+++ (≧50 = +++),97 (KLFEKSTGL; listed as Homo sapiens) [compound 97],+ (<20% = +),,
+++ (≧50 = +++),102 (GLYPVTLVGV; listed as Homo sapiens) [compound 102],+ (<20% = +),,
++ (≧20% = ++),121 (ALYVQAPTV; listed as Homo sapiens) [compound 121],+ (<20% = +),,
++ (≧20% = ++),157 (ILQDGQFLV; listed as Homo sapiens) [compound 157],+ (<20% = +),,
+++ (≧50 = +++),236 (KMSELQTYV; listed as Homo sapiens) [compound 236],+ (<20% = +),,
+++ (≧50 = +++),242 (KLQEEIPVL; listed as Homo sapiens) [compound 242],+ (<20% = +),,
+++ (≧50 = +++),246 (ALAGIVTNV; listed as Homo sapiens) [compound 246],+ (<20% = +),,
+++ (≧50 = +++),251 (LLWGNLPEI; listed as Homo sapiens) [compound 251],++ (20%-49% = ++),,
++ (≧20% = ++),254 (ALGDKFLLRV; listed as Homo sapiens) [compound 254],+ (<20% = +),,
+++ (≧50 = +++),257 (KLIDHQGLYL; listed as Homo sapiens) [compound 257],+ (<20% = +),,
+++ (≧50 = +++),261 (GLAALAVHL; listed as Homo sapiens) [compound 261],++ (20%-49% = ++),,
